In patent publication US8680111B2 (Pfizer Inc., priority 2012, dated 2014):
Where two headings read alike, the source gives them in different places.

Tests used:
[1] = biological target: T1, human recombinant L1196M ALK kinase domain (amino acids 1093-1411) (Homo sapiens, UniProt Q9UM73, L1196M); experiment: L1196M mutant ALK enzyme assay (microfluidic mobility shift); assay type: biochemical; details: ATP 60 μM, 0.5 nM enzyme, competitive inhibition fit; read-out: L1196M ALK enzyme assay (Ki)
T1 construct: ALK kinase domain (amino acids 1093-1411); made in house

[2] = biological target: T2, human recombinant wild-type ALK kinase domain (amino acids 1093-1411) (Homo sapiens, UniProt Q9UM73); experiment: Wild-type ALK enzyme assay (microfluidic mobility shift); assay type: biochemical; details: ATP 60 μM, competitive inhibition fit, read-out: WT ALK enzyme assay (Ki)
T2 construct: ALK kinase domain (amino acids 1093-1411); made in house
Experimental: The reactions were incubated for 1 h at room temperature, stopped by the addition of 0.1 M EDTA, pH 8, and the extent of reactions (˜15-20% conversion with no inhibitor) was determined after electrophoretic separation of the fluorescently labeled peptide substrate and phosphorylated product on an LabChip EZ Reader II (Caliper Life Sciences, Hopkinton, Mass.).

[3] = biological target: T3, L1196M EML4-ALK (NIH-3T3 EML4-ALK v1 L1196M cells) (Homo sapiens, UniProt Q9UM73, L1196M); experiment: Cellular phospho-ALK (Tyr1604) ELISA assay for L1196M EML4-ALK; assay type: cell-based; details: NIH-3T3 EML4-ALK v1 L1196M cells, 1 hour, phospho-ALK (Tyr1604); read-out: ELISA assay for L1196M EML4-ALK (IC50)
T3 construct: expressed in transfected cells; the other entry of the earlier key: EML4 (Q9HC35, Echinoderm microtubule-associated protein-like 4)
Experimental: (§1) Cellular Phospho-ALK (Tyr1604) ELISA Assay for EML4-ALK:
(§2) The cells were maintained at 37° C. in a 5% CO2 incubator in DMEM (Invitrogen, Carlsbad, Calif.) medium supplemented with 1% L-glutamine, 1% penicillin and streptomycin, 1 ug/ml puromycin and 10% new born calf serum (NCS) in T-75 flasks.
(§3) Cells were washed with PBS and re-suspended in DMEM medium supplemented with 0.5% NCS and 1% pen/strep and seeded into 96-well plates at density of 20,000 cells/well/100 μl and incubated in the incubator at 37° C. and 5% CO2. After 20 hours of incubation, 100 μl of assay media (DMEM) in presence of designated PF-compounds concentrations or controls (DMSO) were added into plates and incubated for 1 hour in the incubator. Media was then removed and lysis buffer, containing phosphatase inhibitors and phenylmethanesulfonyl fluoride (PMSF), was added to wells and shaken at 4° C. for 30 minutes to generate protein lysates.
(§4) A phospho-ALK (Tyr1604) rabbit antibody was coated onto the 96-well microplates. 50 μl of cell lysates were added to the antibody coated plate and incubated at room temperature for 2 hours. Following extensive washing with 0.1% Tween 20 in PBS to remove unbound materials, ALK mouse mAb was added to detect captured phospho-ALK (Tyr1604) and phospho-ALK fusion proteins. Anti-mouse IgG, HRP-linked antibody was then used to recognize the bound detection antibody. Finally, the chemiluminescent reagent was added and incubated for 10 minutes for signal development. The assay plates were read in the Envision plate reader in the luminescent mode. IC50 values were calculated by a concentration-response curve fitting using a four-parameter analytic method.

[4] = biological target: T4, WT EML4-ALK (NIH-3T3 EML4-ALK wt v1 cells) (Homo sapiens, UniProt Q9UM73); experiment: Cellular phospho-ALK (Tyr1604) ELISA assay for WT EML4-ALK; assay type: cell-based; details: 1 hour, read-out: ELISA assay for WT EML4-ALK (IC50)
T4 construct: expressed in transfected cells; the other entry of the earlier key: EML4 (Q9HC35, Echinoderm microtubule-associated protein-like 4)
Experimental: as §1, §2, §3, §4

Ki [1] | Ki [2] | IC50 [3] | IC50 [4] | Compound | ring closure, isolated yield (cc_pd bond, 12-membered ring, Pd(OAc)2/cataCXium A/KOAc, t-amyl alcohol, 120.0 °C, 2 steps) | ring closure, isolated yield (cc_pd bond, Pd(OAc)2/cataCXium A/KOAc, t-amyl alcohol, 30.0 mM, 120.0 °C) | ring closure, isolated yield (amide bond, 12-membered ring, HATU/DIEA, DMF/THF, 18.6 mM, 0.0 °C) | ring closure, isolated yield (ether bond, 13-membered ring, NaH, DMF, 51.0 mM, 50.0 °C, 2 steps)
74 nM | 47.6 nM | – | – | C[C@@H]1Oc2nc(cnc2N)-c2cn(C)nc2CN(C)C(=O)c2ccc(F)cc21 [Example 83, (10S)-7-amino-12-fluoro-2,10,16-trimethyl-16,17-dihydro-2H-8,4-(azeno)pyrazolo[4,3-h][2,5,11]benzoxadiazacyclotetradecin-15(10H)-one] | 11% | – | – | –
– | – | – | – | CC1Oc2cc(cnc2N)-c2c(cnn2C)CCCCCOc2ccc(F)cc21 (stereo not drawn) | – | 43% | – | –
21.5 nM | 4.6 nM | – | – | C[C@H]1Oc2cc(nnc2N)-c2c(nn(C)c2C#N)CN(C)C(=O)c2ccc(F)cc21 [Example 60, (10R)-7-amino-12-fluoro-2,10,16-trimethyl-15-oxo-10,15,16,17-tetrahydro-2H-8,4-(metheno)pyrazolo[4,3-h][2,5,6,11]benzoxatriazacyclotetradecine-3-carbonitrile] | – | – | 9% | –
1.1 nM | < 0.2 nM | 27.7 nM | 1.21 nM | Cc1nn(C)c2c1-c1cnc(N)c(c1)OC(C)c1cc(F)ccc1C(=O)N(C1CC1)C2 (single isomer, unassigned) [Example 11, 7-amino-16-cyclopropyl-12-fluoro-1,3,10-trimethyl-16,17-dihydro-1H-8,4-(metheno)pyrazolo[4,3-h][2,5,11]benzoxadiazacyclotetradecin-15(10H)-one] | – | – | – | –
0.28 nM | 0.13 nM | 6.25 nM | 0.95 nM | COc1snc2c1-c1cnc(N)c(n1)O[C@H](C)c1cc(F)ccc1C(=O)N(C)C2 [Example 51, (10R)-7-amino-12-fluoro-3-methoxy-10,16-dimethyl-16,17-dihydro-8,4-(azeno)[1,2]thiazolo[4,3-h][2,5,11]benzoxadiazacyclotetradecin-15(10H)-one] | – | – | – | –
1.5 nM | 0.17 nM | 80.8 nM | 4.08 nM | CCn1ncc2c1-c1cnc(N)c(n1)O[C@H](C)c1cc(F)ccc1C(=O)N(C)C2 [Example 49, (10R)-7-amino-3-ethyl-12-fluoro-10,16-dimethyl-16,17-dihydro-3H-8,4-(azeno)pyrazolo[3,4-h][2,5,11]benzoxadiazacyclotetradecin-15(10H)-one] | – | – | – | –
– | – | – | – | Cn1ncc2c1-c1cnc(N)c(c1)OCc1cc(F)ccc1OCCC2 | – | – | – | 37%
0.24 nM | < 0.07 nM | 13.4 nM | 1.03 nM | C[C@H]1Oc2cc(cnc2N)-c2c(nn(C)c2C#N)CN(C2CC2)C(=O)c2ccc(F)cc21 [Example 55, (10R)-7-amino-16-cyclopropyl-12-fluoro-2,10-dimethyl-15-oxo-10,15,16,17-tetrahydro-2H-8,4-(metheno)pyrazolo[4,3-h][2,5,11]benzoxadiazacyclotetradecine-3-carbonitrile] | – | – | – | –
1.2 nM | 0.14 nM | 29.7 nM | 2.37 nM | C[C@H]1Oc2cc(cnc2N)-c2c(nc3ccccn23)CN(C)C(=O)c2ccc(F)cc21 [Example 50, (5R)-8-amino-3-fluoro-5,19-dimethyl-18,19-dihydro-7,11-(metheno)pyrido-[2′,1′:2,3]imidazo[4,5-h][2,5,11]benzoxadiazacyclotetradecin-20(5H)-one] | – | – | – | –
29 nM | 10 nM | 700 nM | 34.9 nM | Cc1nn(C)c2c1-c1cnc(N)c(c1)OC(C)c1cc(F)ccc1C(=O)N(C1CC1)C2 (single isomer, unassigned) [Example 12, 7-amino-16-cyclopropyl-12-fluoro-1,3,10-trimethyl-16,17-dihydro-1H-8,4-(metheno)pyrazolo[4,3-h][2,5,11]benzoxadiazacyclotetradecin-15(10H)-one] | – | – | – | –
10 nM | 0.9 nM | 680 nM | 12.1 nM | CC1Oc2cc(cnc2N)-c2ccccc2CN(C)C(=O)c2ccc(F)cc21 (stereo not drawn) [Example 8, 8-amino-3-fluoro-5,17-dimethyl-16,17-dihydro-7,11-(metheno)dibenzo[g,l]-[1,4,10]-oxadiazacyclotetradecin-18(5H)-one] | – | – | – | –
4.7 nM | 8.1 nM | 55.6 nM | 11 nM | CC1Oc2nc(cnc2N)-c2c(nn(C)c2C#N)Cn2ccnc2-c2ccc(F)cc21 (single isomer, unassigned) [Example 109, 8-amino-3-fluoro-5,13-dimethyl-13,15-dihydro-5H-7,11-(azeno)imidazo[1,2-k]pyrazolo[4,3-h][2,5,11]benzoxadiazacyclotetradecine-12-carbonitrile] | – | – | – | –
3.4 nM | 0.32 nM | 248 nM | 9.67 nM | CCc1nsc2c1-c1cnc(N)c(c1)O[C@H](C)c1cc(F)ccc1C(=O)N(C)C2 [Example 112, (10R)-7-amino-3-ethyl-12-fluoro-10,16-dimethyl-16,17-dihydro-8,4-(metheno)[1,2]thiazolo[4,5-h][2,5,11]benzoxadiazacyclotetradecin-15(10H)-one] | – | – | – | –
< 0.05 nM | < 0.06 nM | 0.5 nM | 0.068 nM | CC1Oc2nc(cnc2N)-c2c(nn(C)c2C#N)Cn2ccnc2-c2ccc(F)cc21 (single isomer, unassigned) [Example 108, 8-amino-3-fluoro-5,13-dimethyl-13,15-dihydro-5H-7,11-(azeno)imidazo[1,2-k]pyrazolo[4,3-h][2,5,11]benzoxadiazacyclotetradecine-12-carbonitrile] | – | – | – | –
0.86 nM | 0.3 nM | 51.9 nM | 11.4 nM | CC1Oc2nc(cnc2N)-c2c(C#N)nn3c2C(CC3)N(C)C(=O)c2ccc(F)cc21 [Example 74, (9R)-6-amino-11-fluoro-9,15-dimethyl-14-oxo-9,14,15,15a,16,17-hexahydro-7,3-(azeno)-8-oxa-1,5,15,17a-tetraazabenzo[11,12]cyclotetradeca[1,2,3-cd]pentalene-2-carbonitrile] | – | – | – | –
0.67 nM | < 0.2 nM | 67.2 nM | 2.64 nM | COc1nccc2c1-c1cnc(N)c(n1)OC(C)c1cc(F)ccc1C(=O)N(C)C2 (single isomer, unassigned) [Example 30, 8-amino-13-fluoro-4-methoxy-11,17-dimethyl-17,18-dihydro-9,5-(azeno)pyrido[3,4-h][2,5,11]benzoxadiazacyclotetradecin-16(11H)-one] | – | – | – | –
0.17 nM | 0.15 nM | 17.1 nM | 4.82 nM | CC1Cc2cc(cnc2N)-c2c(nn(C)c2C#N)CN(C)C(=O)c2ccc(F)cc21 (stereo not drawn) [Example 61, 7-amino-12-fluoro-2,10,16-trimethyl-15-oxo-2,9,10,15,16,17-hexahydro-8,4-(metheno)pyrazolo[3,4-d][2,8]benzodiazacyclotetradecine-3-carbonitrile] | – | – | – | –
1.9 nM | 0.35 nM | 169 nM | 10.4 nM | 12-fluoro-1,14-dimethyl-1,4,5,6,7,8-hexahydro-14H-16,20-(metheno)-pyrazolo[4,3-g][1,14,11]benzodioxazacycloheptadecin-17-amine [Example 95] | – | – | – | –
16.5 nM | 3.32 nM | 892 nM | 35.3 nM | C[C@H]1Oc2cc(cnc2N)-c2c(nn(C)c2C#N)CNC(=O)c2ccc(F)cc21 [Example 132, (10R)-7-amino-12-fluoro-2,10-dimethyl-15-oxo-10,15,16,17-tetrahydro-2H-8,4-(metheno)pyrazolo[4,3-h][2,5,11]benzoxadiazacyclotetradecine-3-carbonitrile] | – | – | – | –
7.4 nM | 2.1 nM | 873 nM | 56.2 nM | 7-amino-12-fluoro-3-methoxy-1,16,17-trimethyl-16,17-dihydro-1H-8,4-(azeno)pyrazolo[4,3-h][2,5,11]benzoxadiazacyclotetradecin-15(10H)-one [Example 124] | – | – | – | –
16.7 nM | 3 nM | 642 nM | 115 nM | CC1Oc2nc(cnc2N)-c2c(nn(C)c2C#N)COCc2ccc(F)cc21 (single isomer, unassigned) [Example 105, 7-amino-12-fluoro-2,10-dimethyl-2,10,15,17-tetrahydro-8,4-(azeno)pyrazolo[4,3-h][2,11,5]benzodioxazacyclotetradecine-3-carbonitrile] | – | – | – | –
1.1 nM | 0.15 nM | 44.7 nM | 10.4 nM | CN1Cc2nn(C)c(C#N)c2-c2cnc(N)c(n2)OCc2cc(F)ccc2C1=O [Example 46, 7-amino-12-fluoro-2,16-dimethyl-15-oxo-10,15,16,17-tetrahydro-2H-8,4-(azeno)pyrazolo[4,3-h][2,5,11]benzoxadiazacyclotetradecine-3-carbonitrile] | – | – | – | –
0.56 nM | < 0.2 nM | 21.9 nM | 1.35 nM | COc1nn(C)c2c1-c1cnc(N)c(c1)OC(C1CC1)c1cc(F)ccc1C(=O)N(C)C2 (single isomer, unassigned) [Example 25, 7-amino-10-cyclopropyl-12-fluoro-3-methoxy-1,16-dimethyl-16,17-dihydro-1H-8,4-(metheno)pyrazolo[4,3-h][2,5,11]benzoxadiazacyclotetradecin-15(10H)-one] | – | – | – | –
